Measured values as given in patent publication US11008333B2, “Crystalline forms of hydrochloride salts of thienopyrimidine compound” (HANMI PHARM. CO., LTD., priority 2015, dated 2021).
Converted amounts (≈) assume the structure as drawn. Read-outs that look alike come from different tables or passages of the source.

How the values were obtained:
[1] = Dynamic vapor sorption (DVS), water absorption / hygroscopicity; format: physicochemical
Experimental: Dynamic vapor sorption (DVS) analysis was performed in a DVS advantage (Surface measurement system, United Kingdom) analyzer at 25° C. with a relative humidity of 0% to 90%. A sample in an amount of 10 mg was placed into a wire-mesh vapor sorption balance pan and then attached to a DVS advantage dynamic vapor sorption balance via surface measurement systems. Until a stable weight was achieved (99.5% completion of steps), the sample was applied to a ramping profile with a relative humidity of 10% to 90% with a 10% increase of the sample while maintaining the sample in each step. Upon completion of the sorption cycle, the sample was dried using the same process while maintaining a relative humidity of […]. The changes in the sample weight during the adsorption/desorption cycle (repeated 3 times) were recorded and the hygroscopicity of the sample was measured.

[2] = Measurement of water solubility (HPLC); format: physicochemical; conditions: for pH of solution: solution of the water solubility test, 100 mg/mL in water
Experimental: Specifically, each sample of the polymorphs in an amount of 500 mg was added to 5 mL of water, blended at […] to 25° C. using a Voltamixer, and filtered with a GH Polypro membrane Acrodisc, PALL (pore size: 0.2 μm). The filtrate was diluted with a diluent used for HPLC in a 1:100 ratio to obtain the samples.

[3] = Storage under long-term, accelerated and stress testing conditions; format: physicochemical; conditions: for expected stability: expectation from DVS
[4] = system: cancer cells induced by a mutation in epidermal growth factor receptor (EGFR) tyrosine kinase; conditions: disclosed in WO 2011/162515; cited from earlier work
[5] = system: mutant epidermal growth factor receptor tyrosine kinase; conditions: disclosed in WO 2011/162515; cited from earlier work
[6] = relative humidity of 40% or higher
[7] = non-ionic water, 500 mg in 5 mL (conc. of solution 100 mg/mL), 2θ° C. to 25° C., amount dissolved based on compound of Formula 1, HPLC
[8] = relative humidity of 10% to 70%
[9] = relative humidity of 70% or higher
[10] = relative humidity of 10% to 90%, 25° C.
[11] = accelerated condition (40° C., relative humidity 75%)
[12] = long-term storage condition (25° C., relative humidity 60%)

Structure (SMILES): C=CC(=O)Nc1cccc(Oc2nc(Nc3ccc(N4CCN(C)CC4)cc3)nc3ccsc23)c1 [Example 3, N-(3-(2-(4-(4-methylpiperazin-1-yl)phenylamino)thieno[3,2-d]pyrimidin-4-yloxy)phenyl)acrylamide]
- level of water absorption (hygroscopicity) in DVS ([1]; relative humidity of 10% to 40%): very low level
- level of water absorption (hygroscopicity) in DVS [1, 6]: about 9%
- level of water absorption (hygroscopicity) in DVS ([1]; relative humidity of 40% or higher, listed as ex. 3): about 9%
- Solubility [2, 7]: 7760 µg/mL (≈ 15.9 mM)
- pH of solution [2]: 2.1

Structure (SMILES): C=CC(=O)Nc1cccc(Oc2nc(Nc3ccc(N4CCN(C)CC4)cc3)nc3ccsc23)c1 [Example 4, N-(3-(2-(4-(4-methylpiperazin-1-yl)phenylamino)thieno[3,2-d]pyrimidin-4-yloxy)phenyl)acrylamide]
- level of water absorption (hygroscopicity) in DVS ([1]; relative humidity of 10% to 30%): very high
- level of water absorption (hygroscopicity) in DVS ([1]; relative humidity of 10% to 30%, listed as ex. 4): about 6%
- level of water absorption (hygroscopicity) in DVS [1, 6]: very weak
- level of water absorption (hygroscopicity) in DVS ([1]; relative humidity of 40% or higher, listed as ex. 4): very low and constant level
- Solubility [2, 7]: 10660 µg/mL (≈ 21.9 mM)
- pH of solution [2]: 1.7

Structure (SMILES): C=CC(=O)Nc1cccc(Oc2nc(Nc3ccc(N4CCN(C)CC4)cc3)nc3ccsc23)c1 [Example 5, N-(3-(2-(4-(4-methylpiperazin-1-yl)phenylamino)thieno[3,2-d]pyrimidin-4-yloxy)phenyl)acrylamide]
- level of water absorption (hygroscopicity) in DVS [1, 8]: very low
- level of water absorption (hygroscopicity) in DVS ([1]; relative humidity of 10% to 70%, listed as ex. 5): very low level
- level of water absorption (hygroscopicity) in DVS [1, 9]: about 7%
- level of water absorption (hygroscopicity) in DVS ([1]; relative humidity of 70% or higher, listed as ex. 5): about 7%
- Solubility [2, 7]: 420 µg/mL (≈ 0.863 mM)
- pH of solution [2]: 4.7

Structure (SMILES): C=CC(=O)Nc1cccc(Oc2nc(Nc3ccc(N4CCN(C)CC4)cc3)nc3ccsc23)c1 [Example 6, N-(3-(2-(4-(4-methylpiperazin-1-yl)phenylamino)thieno[3,2-d]pyrimidin-4-yloxy)phenyl)acrylamide]
- level of water absorption (hygroscopicity) in DVS [1, 10]: about 2%
- level of water absorption (hygroscopicity) in DVS ([1]; relative humidity of 10% to 90%, 25° C., listed as ex. 6): about 2%
- Solubility [2, 7]: 570 µg/mL (≈ 1.17 mM)
- pH of solution [2]: 4.9

Structure (SMILES): C=CC(=O)Nc1cccc(Oc2nc(Nc3ccc(N4CCN(C)CC4)cc3)nc3ccsc23)c1 [Example 1, N-(3-(2-(4-(4-methylpiperazin-1-yl)phenylamino)thieno[3,2-d]pyrimidin-4-yloxy)phenyl)acrylamide]
- reversible water sorption and desorption in DVS ([1]; complete range of 0-90% RH): about 3%
- level of water absorption (hygroscopicity) in DVS [1, 10]: 2-3%
- level of water absorption (hygroscopicity) in DVS ([1]; relative humidity of 10% to 90%, 25° C., listed as ex. 1): very low level of change
- water solubility compared with the other forms ([2]; comparison of Table 16): highest water solubility
- Solubility [2, 7]: 50390 µg/mL (≈ 104 mM)
- pH of solution [2]: 1.7
- stability [3, 11]: fully stable
- stability [3, 12]: fully stable
- stability ([3]; stress testing condition (60° C.)): fully stable

Structure (SMILES): C=CC(=O)Nc1cccc(Oc2nc(Nc3ccc(N4CCN(C)CC4)cc3)nc3ccsc23)c1 [Formula 1 (amorphous free base), N-(3-(2-(4-(4-methylpiperazin-1-yl)phenylamino)thieno[3,2-d]pyrimidin-4-yloxy)phenyl)acrylamide]
- inhibitory activity against growth of cancer cells induced by EGFR mutation, and drug resistance thereof [4]: selective and effective inhibitory activity
- Solubility [2, 7]: 0.1 µg/mL
- pH of solution [2]: 7.3
- Solubility ([2]; water, 20 °C, water, thermodynamic from solid, amorphous free base, read-out: water solubility): < 0.1 µg/mL
- inhibitory activity for mutant EGFR tyrosine kinase [5]: selective inhibitory activity

Structure (SMILES): C=CC(=O)Nc1cccc(Oc2nc(Nc3ccc(N4CCN(C)CC4)cc3)nc3ccsc23)c1 [Example 7, N-(3-(2-(4-(4-methylpiperazin-1-yl)phenylamino)thieno[3,2-d]pyrimidin-4-yloxy)phenyl)acrylamide]
- level of water absorption (hygroscopicity) in DVS [1, 8]: very low
- level of water absorption (hygroscopicity) in DVS ([1]; relative humidity of 10% to 90%, 25° C., listed as ex. 7): about 14%
- level of water absorption (hygroscopicity) in DVS [1, 9]: about 14%

Structure (SMILES): C=CC(=O)Nc1cccc(Oc2nc(Nc3ccc(N4CCN(C)CC4)cc3)nc3ccsc23)c1 [Comparative Example 1, N-(3-(2-(4-(4-methylpiperazin-1-yl)phenylamino)thieno[3,2-d]pyrimidin-4-yloxy)phenyl)acrylamide]
- level of water absorption (hygroscopicity) in DVS [1, 10]: very high level
- expected stability [3, 11]: unstable
- expected stability [3, 12]: unstable
